For one data set, the target named is PIM1 (Homo sapiens (Human), UniProt P11309). Put plainly: PIM1 kinase activity test (Mobility shift assay). It counts as biochemical. The method, then:
(§1) The efficacy of the compounds on the activity of PIM1/2/3 was tested by utilizing the Mobility shift assay method, with the specific procedures shown as follows: the test compounds were each dissolved in DMSO to be prepared into a 10 mM stock solution; for each of the test compounds, the stock solution was subjected to a 3-fold dilution from an initial concentration of 10 μM to obtain 10 concentrations.
(§2) PIM1, PIM2, and PIM3 (all three kinases are from Carna) were each prepared with 1× Kinase buffer into a kinase solution at a concentration that was 2.5 times the final concentration. 10 μL of kinase solution at a concentration that was 2.5 times the final concentration was added to each of the compound wells and the positive control well, and 10 μL of 1× Kinase buffer was added to the negative control well. The plate was centrifuged at 1000 rpm for 30 s, mixed well by shaking, and then incubated at room temperature for 10 min. A mixed solution of ATP and Kinase substrate 20 (from GL) at a concentration that was 25/15 times the final concentration was prepared with 1× Kinase buffer. The reaction was started by adding 15 μL of the mixed solution of ATP and Kinase substrate 20 at a concentration that was 25/15 times the final concentration. The 384-well plate was centrifuged at 1000 rpm for 30 s, mixed well by shaking, and then incubated at room temperature for 60 min. 30 μL of stop assay buffer was added to stop the kinase reaction. The plate was centrifuged at 1000 rpm for 30 s and mixed well by shaking. The conversion rates were read using Caliper EZ Reader.
(§3) The IC50 values of the test compounds for kinase activity were obtained by adopting a fitted dose-response curve of analytic software GraphPad Prism 5.

Another data set has as its target PIM2 (Homo sapiens (Human), UniProt Q9P1W9). The data set can be described thus: PIM2 kinase activity test (Mobility shift assay). It counts as biochemical. The method, then: as §1, §2, §3
The next data set addresses PIM3 (Homo sapiens (Human), UniProt Q86V86). Put plainly: PIM3 kinase activity test (Mobility shift assay). It counts as biochemical. The method, then: as §1, §2, §3
The next data set deals with Ba/F3-EPOR-JAK2-V617F. Put plainly: Cell inhibitory activity test (72 h CTG). It counts as cell-based. The method, then:
The EPOR-JAK2-V617F gene was transferred into Ba/F3 wild-type cells by a retrovirus packaging system to obtain a stably transfected cell line Ba/F3-EPOR-JAK2-V617F, which was used for the cell inhibitory activity ICso test of the compounds (reference: Blood. 2010; 115(15): 3109-3117). The specific procedures were as follows: • Cells were seeded in a 96-well plate, treated with the test compounds from DMSO stock solutions (final concentration of DMSO is 0.2%), and cultured at 37° C. with 5% CO2 for 72 h. Then, the cell proliferation inhibitory activity was assayed by the CTG (Cell-Titer Glo) method. For each of the test compounds, the stock solution was subjected to a 3-fold dilution from an initial concentration of 10 μM to obtain 9 concentrations. The dose-response relationship curve was fitted by using Graphpad 7.0 analysis software, and IC50 values were obtained.

A further data set is described as follows: Pharmacokinetic test. Particulars: BALB/c mice; for AUC(0-t) / clearance / half-life / Vd / Cmax / Tmax: female, mouse, plasma; for half-life: read-out: Terminal t1/2 (converted); for Vd: read-out: Vss. It counts as in vivo. The method, then: Experimental animals: BALB/c mice, female; weight: 19-25 g.
Preparation of test sample: the target compound was prepared into solutions at 0.4 mg/mL (for intravenous administration) and 5.0 mg/mL (for oral administration) for later use. Route of administration: oral administration/intravenous injection. Dosing volume and frequency: 5 mL/kg (intravenous injection) or 10 mL/kg (oral administration), single dose.
Sample collection: blood was collected at the following time points: 5 min, 15 min, 30 min, 1 hr, 2 hr, 4 hr, 8 hr, and 24 hr after the administration.
Sample analysis: the collected samples were detected by using an LC-MS/MS method. The model of the instrument used was AB Sciex 5500.
Pharmacokinetic data analysis: the resulting plasma concentration data were fitted and calculated according to a non-compartmental model.

Like-named read-outs stand apart in the source and are kept apart here.

Sequence of PIM2 (Q9P1W9 whole entry): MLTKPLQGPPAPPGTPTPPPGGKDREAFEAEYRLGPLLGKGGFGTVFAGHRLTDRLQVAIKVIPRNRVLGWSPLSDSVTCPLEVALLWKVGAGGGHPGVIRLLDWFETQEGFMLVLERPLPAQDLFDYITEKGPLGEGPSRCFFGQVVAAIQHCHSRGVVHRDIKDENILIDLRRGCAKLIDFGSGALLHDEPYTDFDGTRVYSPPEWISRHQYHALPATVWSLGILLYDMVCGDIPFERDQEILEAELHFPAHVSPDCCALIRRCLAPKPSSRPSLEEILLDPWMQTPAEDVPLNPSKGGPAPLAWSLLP
Sequence of PIM1 (P11309 whole entry): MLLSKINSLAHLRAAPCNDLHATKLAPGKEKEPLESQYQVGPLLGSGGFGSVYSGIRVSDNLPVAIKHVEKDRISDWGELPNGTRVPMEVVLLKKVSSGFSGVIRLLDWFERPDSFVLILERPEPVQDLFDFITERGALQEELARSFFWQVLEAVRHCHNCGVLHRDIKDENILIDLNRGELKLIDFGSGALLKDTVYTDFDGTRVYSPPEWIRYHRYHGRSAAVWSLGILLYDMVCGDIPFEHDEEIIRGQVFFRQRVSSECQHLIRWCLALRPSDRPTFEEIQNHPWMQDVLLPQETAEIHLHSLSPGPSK

On to `OC[C@@H]1CC[C@@H](Nc2ccc3ncc(-c4ccc(C(F)(F)F)s4)n3n2)CO1` [Compound 46, [(2S,5R)-5-[[3-[5-(trifluoromethyl)-2-thienyl]imidazo[1,2-b]pyridazin-6-yl]amino]tetrahydropyran-2-yl]methanol], for which the IC50 on PIM1 lay within 2 to 10 nM. Also, on PIM2, the half-inhibitory concentration (IC50) was in the range of 1000 to 10000 nM. The IC50 at PIM3 is 100 to 1000 nM. The 50% inhibitory concentration (IC50) with Ba/F3-EPOR-JAK2-V617F was 100 to 150 nM. In the data set “Pharmacokinetic test” (oral administration, 50 mg/kg), the F amounted to 89.9%, the AUC(0-t) worked out at 11800 ng·h/mL, the highest level (Cmax) was 10600 ng/mL and the time of peak concentration (Tmax) was determined as 0.5 h. For the same compound, the half-life in the data set “Pharmacokinetic test” (oral administration, 50 mg/kg) is 0.91 h. Also, in “Pharmacokinetic test” (intravenous injection, 2 mg/kg), the AUC(0-t) amounted to 523 ng·h/mL, the clearance is 65.8 mL/min/kg, the half-life was 0.26 h and the Vd is 1.47 L/kg.

Take `CC(C)(O)[C@H]1CC[C@H](Nc2ccc3ncc(-c4cccc(C(F)(F)F)c4)n3n2)CC1` [TP-3654, reference compound]: the IC50 on PIM1 is 10 to 100 nM. Moreover, the IC50 on PIM2 lay in the range of 100 to 1000 nM. In addition, at PIM3, the 50% inhibitory concentration (IC50) lay within 100 to 1000 nM. The same compound came in with an IC50 in the data set with Ba/F3-EPOR-JAK2-V617F of over 150 nM. Further, in “Pharmacokinetic test” (oral administration, 50 mg/kg), the F was determined as 42.3%, the AUC(0-t) is 6800 ng·h/mL, the Cmax was 2550 ng/mL and the Tmax was determined as 1 h. Besides, in “Pharmacokinetic test” (oral administration, 50 mg/kg), the half-life was 1.33 h. Further, in “Pharmacokinetic test” (intravenous injection, 2 mg/kg), the AUC(0-t) turned out to be 652 ng·h/mL, the clearance is 51.8 mL/min/kg, the half-life was 1.24 h and the Vd worked out at 5.58 L/kg.

`FC(F)(F)c1ccc(-c2cnc3ccc(NC4CCCNCC4)nn23)s1` (stereo not drawn) [Compound 28, N-(azepan-4-yl)-3-[5-(trifluoromethyl)-2-thienyl] imidazo[1,2-b] pyrid azin-6-amine]: the IC50 was under 2 nM on PIM1, 100 to 1000 nM on PIM2, 10 to 100 nM on PIM3 and 50 to 100 nM in the data set on Ba/F3-EPOR-JAK2-V617F.

For `FC(F)(F)c1ccc(-c2cnc3ccc(NC4CC5(CCNCC5)C4)nn23)s1` [Compound 31, N-(7-azaspiro[3.5]nonan-2-yl)-3-[5-(trifluoromethyl)-2-thienyl]imidazo[1,2-b]pyridazin-6-amine], the IC50 on PIM1 is under 2 nM; at PIM2 it was 100 to 1000 nM; on PIM3, 10 to 100 nM; in the data set on Ba/F3-EPOR-JAK2-V617F it was 50 to 100 nM.

Turning to `OC12CCC(Nc3ccc4ncc(-c5ccc(C(F)(F)F)s5)n4n3)(CC1)CC2` [Compound 29, 4-[[3-[5-(trefluoromethyl)-2-thienyl]imidazo[1,2-b]pyridazin-6-yl]amino]bicyclo [2.2.2] octan-1-ol], the 50% inhibitory concentration (IC50) on PIM1 was under 2 nM. For the same compound, the half-inhibitory concentration (IC50) at PIM2 was 10 to 100 nM. Also, at PIM3, the concentration for half-maximal inhibition (IC50) was 10 to 100 nM. This compound also returned a concentration for half-maximal inhibition (IC50) in the data set with Ba/F3-EPOR-JAK2-V617F of under 50 nM. For the same compound, in the data set “Pharmacokinetic test” (oral administration, 50 mg/kg), the F is recorded as 35.7%, the area under the curve AUC(0-t) amounted to 7650 ng·h/mL, the concentration peaked (Cmax) at 6670 ng/mL and the time of peak concentration (Tmax) came out at 0.33 h. In addition, in the data set “Pharmacokinetic test” (oral administration, 50 mg/kg), the half-life was 1.41 h. For the same compound, in “Pharmacokinetic test” (intravenous injection, 2 mg/kg), the area under the curve AUC(0-t) came out at 859 ng·h/mL, the clearance was 39.7 mL/min/kg, the half-life is 0.42 h and the Vd came out at 1.38 L/kg.

For the compound `CC(C)(O)[C@H]1CC[C@H](Nc2ccc3ncc(-c4ccc(C(F)(F)F)s4)n3n2)CC1` [Compound 20, 2-((1r,4r)-4-4-((3-(5-(trifluoromethyl)thiophen-2-yl)imidazo[1,2-b]pyridazin-6-yl)amino)cyclohexyl)propan-2-ol], the half-maximal inhibitory concentration (IC50) on PIM1 was under 2 nM. The concentration for half-maximal inhibition (IC50) on PIM2 lay in the range of 100 to 1000 nM. The half-maximal inhibitory concentration (IC50) at PIM3 was 10 to 100 nM. The compound further showed an IC50 in the data set on Ba/F3-EPOR-JAK2-V617F of under 50 nM. In the data set “Pharmacokinetic test” (oral administration, 50 mg/kg), the F was 66.6%, the AUC(0-t) worked out at 18100 ng·h/mL, the Cmax was found to be 3980 ng/mL and the Tmax was 1.33 h. Further, in “Pharmacokinetic test” (oral administration, 50 mg/kg), the half-life is 3.5 h. Further, in the data set “Pharmacokinetic test” (intravenous injection, 2 mg/kg), the AUC(0-t) came out at 1090 ng·h/mL, the clearance was 31 mL/min/kg, the half-life is 1.06 h and the Vd is 1.85 L/kg.

One may read the IC50 as the concentration that gives 50% inhibition. The term AUC(0-t) denotes exposure summed from dosing to a finite time, without extrapolation to infinity. A higher AUC(0-t) goes with more exposure. One may read the clearance as the rate of elimination divided by the concentration. Low values mean inefficient removal, high ones efficient removal. As a reminder, the Cmax is the peak of the concentration-time curve. For orientation: Tmax means the time at which the peak concentration occurs.

For the origin of these results see patent US20240124469A1, “PIM KINASE INHIBITOR” (Hangzhou Biosun Pharmaceutical Co., Ltd., priority 2021, published 2024).
